Laboratory results published in patent US3966731A, “2-Fluoromethyl-3-o-tolyl-6-amino-4(3H)-quinazolinone” (Tanabe Seiyaku Co., Ltd., priority 1973, dated 1976).

Legend:
[1] = system: cardiazol-induced convulsive death in mice; assay: Anti-cardiazol activity, protection from cardiazol-induced convulsive death; assay type: in vivo; conditions: for ED50: Mus musculus, oral, 125 mg of cardiazol s.c. 30 minutes after dosing, protection at 60 minutes
Description: (§1) The quinazolinone derivative [I] of the present invention has potent tranquilizing, anti-convulsive and analgesic activities. […] On the other hand, when examined under the same condition as above, 200 mg of Mefenamic acid[Chemical name: N-(2,3-xylyl)anthranilic acid] are required to produce 25 % decrease in said carageenin-induced edema.
Anti-cardiazol activity. A drug was administered orally to mice. After 30
minutes of the dosing, 125 mg of cardiazol were injected subcutaneously t
the mice. ED50 of the drug was estimated from the number of mice
which were protected from cardiazol-induced convulsive death 60 minutes
after injection of cardiazol.

[2] = Hypnotic activity, loss of righting reflex (oral, mice); therapeutic index; assay type: in vivo; conditions: mouse, in vivo, mice, oral; for selectivity ratio: po; for TD50: loss of righting reflex for more than 20 seconds in 50 % of the mice, read-out: Side effect: Hypnotic activity HD50 (D)
Description: (§2) (D) :A drug was administered orally to mice. The hypnotic activity of the
(§3) drug was determined by the number of mice which lost righting reflex for
(§4) more than 20 seconds. HD50 of the drug was estimated as the dose
(§5) which was required to produce the losing of righting reflex in 50 % of th
(§6) Therapeutic index and Safety margin: Said index and margin were calculate

[3] = system: mice; assay: Muscle relaxing activity, traction method (oral, mice); assay type: in vivo; conditions: Mus musculus, 10, 20 and 30 minutes after dosing
Description: (§7) (A) :Activity examined by the traction method. A drug was administered
(§8) orally to mice. After 10, 20 and 30 minutes of the dosing, the mice were
(§9) suspended by the forepaws to a metallic wire of 1 mm in diameter.
(§10) ED50 of the drug was estimated from the number of mice which fell ou
(§11) of the wire within 10 seconds.

[4] = system: acetic acid-induced writhings; assay: Analgesic activity, acetic acid-writhing method; assay type: in vivo, mice; conditions: for ED50: Mus musculus, oral, mice, 1 % acetic acid i.p., 50 % reduction in writhings
Description: as §1
Analgesic activity. One % acetic acid solution was injected
intraperitoneally to mice at the dose of […] after oral
administration of a drug, and the number of writhings per mouse was
counted for 5 minutes starting at 10 minutes after injection of acetic
acid. ED50 of the drug was estimated as the dose which would produce
50 % reduction in acetic acid-induced writhings.

[5] = system: mice; assay: Muscle relaxing activity, inclined plate method (oral, mice); assay type: in vivo; conditions: Mus musculus, 15, 30 and 45 minutes after dosing, read-out: Muscle relaxing activity ED50 (B)
Description: (§12) (B) :Activity examined by the inclined plate method. A drug was
(§13) administered orally to mice. After 15, 30 and 45 minutes of the dosing,
(§14) the mice were put on the center of a canvas (60 cm in length and 50 cm in
(§15) width) having been set up with an inclination of 60 degrees. ED50 of
(§16) the drug was estimated from the number of mice which slipped down from th
(§17) canvas within one minute.

[6] = Acute toxicity (oral, mice, 72 hours); safety margin; assay type: in vivo; conditions: mouse, in vivo, mice, oral; for selectivity ratio: po; for LD50 at 72 h: died 72 hours after dosing, read-out: Side effect: Acute toxicity LD50 (E)
Description: (§18) (E) :A drug was administered orally to mice. The 50 % lethal dose
(§19) (LD50) of the drug was estimated from the number of mice which died
(§20) 72 hours after the dosing.
as §6

[7] = Japanese patent application No. 81910/1971; cited from earlier work
[8] = system: mice; assay: Muscle relaxing activity, rotating rod method (oral, mice); assay type: in vivo; conditions: Mus musculus, 0.5 h, 30 minutes after dosing, read-out: Muscle relaxing activity ED50 (C)
Description: (§21) (C) :Activity examined by the rotating rod method. A drug was administere
(§22) orally to mice. After 30 minutes of the dosing, the mice were placed for
(§23) minutes on rotating rods (3.5 cm in diameter, 14 rpm.). ED50 of the
(§24) drug was estimated from the number of mice which fell out of the rods

[9] = system: mice; assay: Central muscle relaxing activity (Table 1, traction, inclined plate and rotating rod methods together); conditions: mouse, in vivo
Description: as §7, §8, §9, §10, §11, §12, §13, §14, §15, §16, §17, §21, §22, §23, §24

[10] = Arzneimittel Forshung 21(1971), 238-243; U.S. Pat. No. 3317388; cited from earlier work
[11] = system: mice; assay: Hypnotic activity, loss of righting reflex (oral, mice); therapeutic index; assay type: in vivo; conditions: for hypnotic activity (side effect), in words: mouse, in vivo
Description: as §2, §3, §4, §5, §6

[12] = system: carageenin-induced edema; assay: Anti-inflammatory activity, carageenin-induced edema; assay type: in vivo, rats
Description: as §1
Anti-inflammatory activity. A drug was administered orally to rats at the
dose of 30 mg/kg. To the control group was administered orally a
physiological saline solution. After one hour, one % carageenin solution
was injected subcutaneously to the rats through planta of hind legs at th
dose of 0.5 ml/rat. Then, the volume of the hind legs in the control and
medicated groups were measured at 3 hours after injection of carageenin,
and the preventive effect (%) of the drug against carageenin-induced edem
was calculated therefrom.

[13] = Tranquilizing activity (no method given); conditions: in vivo
[14] = system: mice; assay: Acute toxicity (oral, mice, 72 hours); safety margin; assay type: in vivo; conditions: vs 2-methyl-3-(o-tolyl)-6-amino-4(3H)-quinazolinone; ratio of muscle relaxing activity to acute toxicity
Description: as §18, §19, §20, §6

[15] = HD50 / ED50 inclined plate method, read-out: Therapeutic index D/B
[16] = HD50 / ED50 rotating rod method, read-out: Therapeutic index D/C
[17] = HD50 / ED50 traction method, read-out: Therapeutic index D/A
[18] = LD50 / ED50 inclined plate method, read-out: Safety margin E/B
[19] = LD50 / ED50 rotating rod method, read-out: Safety margin E/C
[20] = LD50 / ED50 traction method, read-out: Safety margin E/A

SMILES | ED50 ([1]; mice) [mg/kg] | selectivity ratio [2, 15] | selectivity ratio [2, 16] | selectivity ratio [2, 17] | TD50 [2] [mg/kg] | ED50 [3] [mg/kg] | ED50 [4] [mg/kg] | ED50 [5] [mg/kg] | selectivity ratio [6, 18] | selectivity ratio [6, 19] | selectivity ratio [6, 20] | LD50 at 72 h [6] [mg/kg] | ED50 [8] [mg/kg] | hypnotic activity (side effect), in words [11] | other results
Cc1ccccc1-n1c(CF)nc2ccccc2c1=O [2-fluoromethyl-3-(o-tolyl)-4(3H)-quinazolinone] | 56.1 | 1.48 | 1.29 | 0.63 | 87.3 | 138 | 42.1 | 58.9 | 12.1 | 10.5 | 5.1 | 710 | 67.5 | – | hypnotic use, in words (Inoue et al) [7]: useful as hypnotic agents
Cc1ccccc1-n1c(CF)nc2ccc([N+](=O)[O-])cc2c1=O [2-fluoromethyl-3-(o-tolyl)-6-nitro-4(3H)-quinazolinone] | – | – | – | – | > 100 | > 100 | – | > 100 | – | – | – | – | > 100 | – | hypnotic use, in words (Inoue et al) [7]: useful as hypnotic agents
Cc1ccccc1-n1c(C)nc2ccc(N)cc2c1=O [2-methyl-3-(o-tolyl)-6-amino-4(3H)-quinazolinone] | 16.9 | – | – | – | 33.7 | 24 | 10 | 22.5 | – | – | – | – | 22.5 | – | muscle relaxing activity, in words [9]: relatively strong muscle relaxing activity; muscle relaxing activity, in words (Breuer et al) [10]: shows a muscle relaxing activity
CN1C(=O)CCS(=O)(=O)C1c1ccc(Cl)cc1 (stereo not drawn) [Chlormezanone, 2-(p-chlorophenyl)tetrahydro-3-methyl-4H-1,3-thiazin-4-one 1,1-dioxide] | 28.8 | 2.47 | 1.74 | 1.86 | 386 | 208 | 258 | 156 | 8.6 | 6.1 | 6.5 | 1340 | 222 | potent hypnotic activity | –
Cc1cccc(Nc2ccccc2C(=O)O)c1C [Mefenamic acid, N-(2,3-xylyl)anthranilic acid] | – | – | – | – | – | – | – | – | – | – | – | – | – | – | decrease in carageenin-induced edema ([12]; 200 mg of Mefenamic acid required, same condition (oral, rats)): 25%
Cc1ccccc1OCC(O)CO (stereo not drawn) [Mephenesin, 3-(o-tolyloxy)-1,2-propanediol] | 600 | 1.5 | 1.66 | 1.56 | 824 | 527 | – | 551 | 3.7 | 4.1 | 3.8 | 2020 | 498 | potent hypnotic activity | –
Cc1ccccc1-n1c(CF)nc2ccc(N)cc2c1=O [quinazolinone derivative [I], 2-fluoromethyl-3-(o-tolyl)-6-amino-4(3H)-quinazolinone] | 15.7 | 2.75 | 2.37 | 2.57 | 53.1 | 20.7 | 11.8 | 19.3 | 27.4 | 23.6 | 25.5 | 528 | 22.4 | relatively less hypnotic activity | anti-convulsive activity, in words ([1]; mouse, in vivo): potent; anti-cardiazol activity, times superior to 2-fluoromethyl-3-(o-tolyl)-4(3H)-quinazolinone ([1]; vs 2-fluoromethyl-3-(o-tolyl)-4(3H)-quinazolinone, mice): 3.6 times; anti-cardiazol activity, times superior to 2-methyl-3-(o-tolyl)-6-amino-4(3H)-quinazolinone ([1]; vs 2-methyl-3-(o-tolyl)-6-amino-4(3H)-quinazolinone, mice): 1.1 times; anti-cardiazol activity (ED50), times superior to Chlormezanone ([1]; vs Chlormezanone, mice): about 2 times; tranquilizing activity, in words [13]: potent; therapeutic index, times superior to Chlormezanone ([11]; vs Chlormezanone, ratio of muscle relaxing to hypnotic activity): about 2 times; therapeutic index, times superior to Mephenesin ([11]; vs Mephenesin, ratio of muscle relaxing to hypnotic activity): about 2 times; analgesic activity (ED50) compared with Chlormezanone ([4]; acetic acid-writhing method, in words): apparently stronger than that of Chlormezanone; analgesic activity, in words ([4]; mouse, in vivo): potent; safety margin, times superior to 2-methyl-3-(o-tolyl)-6-amino-4(3H)-quinazolinone [14]: about 7 times; Anti-inflammatory activity: preventive effect (%) against carageenin-induced edema ([12]; oral, rats, 30 mg/kg, 3 hours after carageenin): 28%; anti-inflammatory activity, in words ([12]; rat, in vivo): potent anti-inflammatory activity
